Data: patent US20100093847A1, “ANTI-OBESITY ACTIVE AGENT AND ANTI-OBESITY METHOD” (priority 2005, published 2010)
One block for each molecule: values may come before it.

How the values were obtained:
3T3-L1 preadipocytes = experiment: Quantitative determination of intracellular lipids with Oilred O during differentiation of 3T3-L1 preadipocytes to adipocytes; format: cell-based; conditions: FIG. 3 and FIG. 4; added to culture medium during differentiation induction
Description: (§1) Cell Culture: 3T3-L1 preadipocytes were incubated using DMRM culture medium containing 10% (by volume) of FBS at 37° C. in the presence of CO2 (5%). In this connection, as the FBS, one which had been inactivated at 56° C. for 30 minutes was used. As the cells, those which were unused (naïve) and which had been kept in liquid nitrogen were used in each experiment. On a 96 well microplate, 5×10^4 cells of the 3T3-L1 preadipocytes were seeded per well and pre-incubated for 48 hours.
Then, the culture medium was removed from the wells, and DMEM culture medium containing insulin (10 μg/ml), dexametazone (0.25 μg/ml) and IBMX (0.5 mM) was added to the wells, and incubation was further performed for 48 hours. Thereafter, differentiation to adipocytes was induce while repeating medium replacement at intervals of 4 days with the use of DMEM culture medium containing 5 μg/ml of insulin only. […]
Quantitative Determination of Intracellular Lipids with Oilred O: The cells incubated in the 96 well microplate were immobilized with formalin, and then an oilred O solution was added thereto to stain lipids in the cells. […] Subsequently, isopropanol was added to each of the wells to elute the pigment (colorant), and absorbance, i.e., optical density at 490 nm was measured using a microplate reader.

[1] = test system: GPDH (glycerol-3-phosphate-dehydrogenase); experiment: Measurement of GPDH activity in differentiating 3T3-L1 preadipocytes; format: cell-based; conditions: FIG. 5; compared with no addition
Description: as §1
Then, the culture medium was removed from the wells, and DMEM culture medium containing insulin (10 μg/ml), dexametazone (0.25 μg/ml) and IBMX (0.5 mM) was added to the wells, and incubation was further performed for 48 hours. Thereafter, differentiation to adipocytes was induce while repeating medium replacement at intervals of 4 days with the use of DMEM culture medium containing 5 μg/ml of insulin only. In this procedure, fucoxanthin was added to the culture medium to examine influence thereof on the differentiation induction.
Measurement of GPDH Activity: For measurement of GPDH (glycerol-3-phosphate-dehydrogenase) activity, a GDP H activity measuring kit (manufactured by Hokudo Co., Ltd.) was used. Specifically, 3T3-L1 preadipocytes were pre-incubated on a 24 well microplate) for 48 hours, and then differentiation to adipocytes was induced in the same manner as described above. […]

KK-Ay mice = experiment: Animal experiments: KK-Ay mice fed feed containing fucoxanthinol; format: in vivo
Description: Animals and Feed: For the animal experiments, KK-Ay mice (female; 3-week-old) were used. Feed for the experiments was prepared in accordance with AIN-93G composition (formulation). Amount of lipid in the feed was 13.5%. In the case where fucoxanthinol was added, 0.2% of the lipid in the feed was replaced with fucoxanthinol. After the preparation, the feed was immediately vacuum-packed and stored at −20° C. or lower until feeding.
Breeding and Analysis: Preliminary Breeding was conducted for a week using the feed for the control group, and individuals which grew with no problem were divided into groups each consisting of 6 mice in such a manner that there were no substantial unevennesses in body weight among the groups. With respect to each of the groups, two mice were housed and bred in each plastic cage spread with sterilized wood chips to cover the floor. In the breeding cage, temperature and humidity were kept at 23±1° C. and 50%, respectively, and each of light and dark periods was 12 hours. The mice were allowed to freely take (ingest) the feed and water, and the breeding with each of the feeds for the experiments was carried out for 24 days.
After termination of the feeding period, the mice were fasted for 12 hours. Thereafter, blood samples were collected from neck vessels in the presence of EDTA under anesthesia with (ethyl) ether. After the collection of blood samples, organs were immediately harvested and washed well with physiological saline to sufficiently clear blood therefrom. Livers were weighed and then stored at −40° C. or lower until subjected to analyses. Leptin concentrations and blood-sugar levels in blood were measured using a commercially available kit.

[2] = test system: large intestine cancer cells; conditions: according to Non-Patent Document 1; cited from earlier work
adipocytes (fat cells) = conditions: according to Non-Patent Document 2; cited from earlier work
[3] = 24 days feeding, versus control group
[4] = after 24 days feeding, versus control group

relative GPDH activity (relative amount of adipocytes, preadipocytes = 1) [1]: lowered
Molecule: C\C(C=C=C1C(C)(C)C[C@H](O)C[C@@]1(C)O)=C/C=C/C(C)=C/C=C/C=C(C)/C=C/C=C(\C)C(=O)C[C@@]12O[C@]1(C)C[C@@H](O)CC2(C)C [fucoxanthinol]
fat (lipid) accumulation associated with differentiation of 3T3-L1 preadipocytes to adipocytes (optical density at 490 nm, Oilred O) (3T3-L1 preadipocytes): markedly controlled
weight of visceral fat per 100 g of body weight (KK-Ay mice; FIG. 6, 0.2% of feed lipid replaced, 24 days, versus control group): significantly reduced
leptin concentration in blood (KK-Ay mice; FIG. 7, 24 days feeding, versus control group): significantly reduced
blood sugar level (KK-Ay mice; FIG. 8, 24 days feeding, versus control group): reduced

Molecule: fucoxanthin
fat (lipid) accumulation associated with differentiation of 3T3-L1 preadipocytes to adipocytes (optical density at 490 nm, Oilred O) (3T3-L1 preadipocytes): apparently lower than that of fucoxanthinol
relative GPDH activity (relative amount of adipocytes, preadipocytes = 1) [1]: no significant differences
amount of feed intake (KK-Ay mice; [3]): no significant differences
increase in body weight (KK-Ay mice; [3]): no significant differences
weight of hepatic lipid (KK-Ay mice; [4]): no significant differences
weight of liver (KK-Ay mice; [4]): no significant differences
weight of small intestine (KK-Ay mice; [4]): no significant differences
abnormalities in feed intake, glossiness of hair or action (KK-Ay mice; breeding period): no abnormalities
antiproliferative activity / proliferation of large intestine cancer cells [2]: far stronger antiproliferative activity than that of troglytazone
differentiation suppressing activity on adipocytes (adipocytes (fat cells)): has differentiation suppressing activity on adipocytes
